Legend:
Assay in all cases: relative viability (nuclei count vs DMSO), 5 days (fraction); higher = more cells survive
[1] = compound: C[As](C)SC[C@H](NC(=O)CC[C@H](N)C(=O)O)C(=O)NCC(=O)O [Darinaparsin] + C[C@@H](Oc1cc(-c2cnn(C3CCNCC3)c2)cnc1N)c1c(Cl)ccc(F)c1Cl [Crizotinib] (partner 1 µM)
In short: (§1)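 For relative viability, nuclei counts in treated wells were divided by those in vehicle wells. Lung cancer cell lines had been pin-tool dosed in 1536-well plates the day after seeding and cultured for 5 days, then fixed and stained in one step (final 0.05% Triton X-100, 1% formaldehyde, 1 ug/ml Hoechst) and imaged at 4×. Doses were one drug alone or a fixed anchor-drug dose plus five library-drug doses (not always all listed) in √10 steps, and values are duplicate-plate medians.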

AZ628 + Olaparib = compound: CC1=C(C=C(C=C1)NC(=O)C2=CC(=CC=C2)C(C)(C)C#N)NC3=CC4=C(C=C3)N=CN(C4=O)C [AZ628] + O=C(c1cc(Cc2n[nH]c(=O)c3ccccc23)ccc1F)N1CCN(C(=O)C2CC2)CC1 [Olaparib] (partner 8 µM)
In short: as §1

QS11 + Pictilisib = compound: C1CC2=C(C1)C=C(C=C2)OC3=NC(=C4C(=N3)N(C=N4)CC5=CC=C(C=C5)C6=CC=CC=C6)N[C@@H](CC7=CC=CC=C7)CO [QS11] + CS(=O)(=O)N1CCN(Cc2cc3nc(-c4cccc5[nH]ncc45)nc(N4CCOCC4)c3s2)CC1 [Pictilisib] (partner 1 µM)
In short: as §1

AZ628 + Phenformin = compound: CC1=C(C=C(C=C1)NC(=O)C2=CC(=CC=C2)C(C)(C)C#N)NC3=CC4=C(C=C3)N=CN(C4=O)C [AZ628] + N=C(N)NC(=N)NCCc1ccccc1 [Phenformin] (partner 250 µM)
In short: as §1

Cell Line	relative viability ([1]; first compound 0.08 µM)	relative viability ([1]; first compound 0.8 µM)	relative viability ([1]; first compound 2.53 µM)	relative viability ([1]; first compound 8 µM)	relative viability (AZ628 + Olaparib; first compound 0.08 µM)	relative viability (AZ628 + Olaparib; first compound 0.253 µM)	relative viability (AZ628 + Olaparib; first compound 0.8 µM)	relative viability (AZ628 + Olaparib; first compound 2.53 µM)	relative viability (AZ628 + Olaparib; first compound 8 µM)	relative viability (QS11 + Pictilisib; first compound 0.08 µM)	relative viability (QS11 + Pictilisib; first compound 0.253 µM)	relative viability (QS11 + Pictilisib; first compound 0.8 µM)	relative viability (QS11 + Pictilisib; first compound 2.53 µM)	relative viability (QS11 + Pictilisib; first compound 8 µM)	relative viability (AZ628 + Phenformin; first compound 0.08 µM)	relative viability (AZ628 + Phenformin; first compound 0.253 µM)	relative viability (AZ628 + Phenformin; first compound 0.8 µM)	relative viability (AZ628 + Phenformin; first compound 2.53 µM)	relative viability (AZ628 + Phenformin; first compound 8 µM)
HCC-44	0.875	0.872	0.618	0.929	1.01	0.999	0.977	0.972	0.974	0.804	0.432	0.565	0.406	0.431	0.218	0.0997	0.136	0.115	0.203
NCI-H650	0.861	0.574	0.683	0.899	0.43	0.462	0.482	0.512	0.627	0.861	0.939	0.902	0.876	0.958	0.536	0.471	0.552	0.509	0.498
PC-3 [JPC-3]	0.976	0.948	0.973	0.849	1.1	1.16	1.22	1.23	1.1	0.699	0.652	0.707	0.648	0.601	0.441	0.477	0.485	0.464	0.383
CAL-12T	0.902	0.752	0.391	0.707	0.713	0.68	0.781	0.637	0.457	0.446	0.412	0.665	0.314	0.38	0.553	0.492	0.335	0.414	0.336
NCI-H1944	1.39	1.1	1.05	1.27	0.416	0.42	0.411	0.329	0.365	0.331	0.346	–	0.353	0.39	0.188	0.181	0.184	0.177	0.187
NCI-H322M	1.02	1.06	0.753	1.03	0.805	0.755	0.819	0.774	0.783	0.55	0.483	0.492	0.545	0.49	0.783	0.737	0.725	0.769	0.663
LCLC-103H	1.12	1.04	0.979	1.03	0.797	0.77	0.761	0.779	0.769	0.636	0.543	0.591	0.74	0.609	0.358	0.329	0.343	0.302	0.308
SK-MES-1	1.19	1.04	0.838	1.11	0.693	0.824	0.9	0.737	0.392	0.379	0.315	0.381	0.306	0.311	0.715	0.661	0.619	0.675	0.466
A-427	1.01	0.902	0.777	1.1	0.85	0.73	0.773	0.691	0.541	0.546	0.788	–	0.608	0.824	0.207	0.242	0.25	0.245	0.181
NCI-H1355	1.13	1.06	0.852	1.18	0.73	0.784	0.684	0.745	0.574	0.399	0.299	0.378	0.475	0.443	0.502	0.444	0.431	0.411	0.39
NCI-H2170	1.61	1.35	0.953	1.51	0.56	0.598	0.607	0.638	0.551	0.326	0.356	0.327	0.276	0.263	0.447	0.398	0.402	0.41	0.381
NCI-H2023	0.745	0.636	0.56	0.754	0.452	0.427	0.522	0.508	0.433	0.255	0.224	0.291	0.309	0.283	0.387	0.392	0.368	0.381	0.293
NCI-H520	0.873	0.759	0.515	0.924	0.358	0.32	0.325	0.396	0.23	–	0.343	0.27	0.321	0.275	0.583	0.452	0.64	0.476	0.398
NCI-H2087	1.04	0.911	0.889	1.11	0.446	0.491	0.383	0.537	0.181	0.799	0.836	0.926	1.03	1.13	0.348	0.289	0.246	0.27	0.169
NCI-H596	1.08	0.999	0.765	0.982	0.76	0.793	0.703	0.799	0.651	0.382	0.189	0.516	0.404	0.438	0.722	0.85	0.969	0.781	0.808
NCI-H2009	1.09	0.991	0.953	1.02	0.711	0.778	0.862	0.789	0.461	0.726	0.776	0.747	0.711	0.626	0.447	0.395	0.283	0.346	0.273
NCI-H1993	0.979	0.834	0.82	0.774	1.18	1.19	1.05	0.933	0.773	0.843	0.935	0.799	0.875	0.635	0.46	0.562	0.545	0.523	0.537

— the supplement of paper PMC10307832
